Results from patent US20120035187A1 (priority 2009, published 2012).
Marks after values point to notes of the source that are not given here.

Legend:
Type in all cases: in vivo, hamster
[1] = test system: hamsters with cerebellar ataxia; test: Rotarod test in hamsters with cerebellar ataxia; details: for Delayed days until the onset of cerebellar ataxia in hamster: 25 μg/kg body weight; for time (sec) endured until falling from rotarod apparatus: cerebellar ataxia hamsters, 25 μg/kg body weight i.p. once a day
Excerpt: (§1) Since NK-4 was confirmed to have a neurodegenerative inhibitory action in Experiment 1, hamsters with cerebellar ataxia (cerebellar ataxia is called “cerebellar A” and hamsters with cerebellar ataxia are called “hamsters with cerebellar A”, hereinafter) as a suitable model for human neurodegenerative diseases (e.g., spinal cerebellar degeneration) were subjected to examine the influence of NK-4 administration on their behaviors and brain tissues. Twenty-five hamsters with natural mutation (Nna1 inhibition), which are known to lose Purkinje's cells after three-weeks of age and then induce a spontaneous onset of kinetic motor ataxia after seven-weeks of age (see Akita K. et al., “J. Neurogenetics”, Vol. 21, pp. 19-29, 2007), had been fed at Hayashibara Biochemical Laboratories., Inc., Okayama, Japan, were randomly allocated to the test groups 1 to 5, five heads in each group, as shown in Table 2. Prior to the onset of cerebellar A (at three-weeks of age), PBS was started to administer to the hamsters in the test group 1 at a dose of 10 ml/kg/day. Prior to the onset of cerebellar A (at three-weeks of age), NK-4 was started to be administered to the hamsters in the test groups 2 to 4 at a daily dose of 20 μg/kg, 100 μg/kg or 500 μg/kg. “IGF-1, human, a product name of insulin-like growth factor, commercialized by Assaypro LLC, MO, USA. These administered ingredients were intraperitoneally administered daily to hamsters once a day up to 10-weeks of age. The degree of symptom of cerebellar A and the improvement effect on the symptom by NK-4 were evaluated with an index of improvement in motor coordination of hamsters by conducting once a week the later described rotarod test and the slant tolerance test. At the age of 10-weeks, the hamsters were subjected to counting the falling down frequency and extracted their brains, which were then histologically evaluated. In parallel, the concentration of glutamic acid in the bloods and cerebrospinal fluids (CSF) of the hamsters was assayed. As a test group 6, five normal hamsters, with the same age as the hamsters with cerebellar A used in the test groups 1 to 5, were provided and tested similarly as the hamsters with cerebellar A in such a manner of intraperitoneally administering PBS to them at a dose of 10 ml/kg/day once a day up to 10-weeks of age.
As an index for coordinated movement, it was used a duration time of hamster's movement to staying on a rotarod by locomotion in synchronization with the turn of the rotarod; placing a hamster on an apparatus with a rotarod (having a diameter of 60 mm, prepared by Hayashibara Biochemical Laboratories, Inc., Okayama, Japan), turning at a constant rate of six rpm, and measuring the time until the hamster falls down from the rotarod (see Fernandez et al., “Proc. Natl. Acad. Sci. USA”, Vol. 95, pp. 1253-1258, 1998). The test was repeated six times for each hamster, where five-times of tests starting from the initiation of the test were made as a preliminary examination, and the time until each hamster fell down from the rotarod (called “falling time”, hereinafter) was measured, followed by averaging the falling times for each group consisting of five heads. The falling time was measured until 180 seconds. Based on the results, the relationship between the age and the falling time for each hamster with cerebellar A (test group 1) administered with PBS was graphed. […]
Similarly as in Experiment 2, 130 hamsters with cerebellar ataxia, born within the same week and 3-weeks of age, were randomly divided into 13 groups, consisting of 10 hamsters, respectively. […]

[2] = test system: hamsters with cerebellar ataxia; test: Slant tolerance test in hamsters with cerebellar ataxia; details: cerebellar ataxia hamsters, 25 μg/kg body weight i.p. once a day
Excerpt: as §1
Hamsters were placed on a slope-angle-variable-board while keeping their heads upward, followed by determining the angle for allowing the hamsters to keep staying thereupon for five seconds for use as an endurable-slant-slope-angle test (see Rivlin et al., “J. Neurosurg.”, Vol. 47, pp. 577-581, […]). The initial slope angle was set to 25 degrees and increased by 5 degrees step by step. When a tested hamster in a static condition fell down within five seconds, the slope angle was decreased by one degree step by step, followed by judging the angle that allows the hamster to keep static staying for five seconds, measuring the tolerable slant-slope-angle, and averaging the data for five heads in each group.
(§2) Similarly as in Experiment 2, 130 hamsters with cerebellar ataxia, born within the same week and 3-weeks of age, were randomly divided into 13 groups, consisting of 10 hamsters, respectively. […] The hamsters (10 heads) in the remaining one group were intraperitoneally administered from their age of 3- to 10-weeks with a sterilized 10% maltose solution (pyrogen-free) in an amount of 0.5 ml/hamster (control) once a day for 56 days At the next day after the end of the administration, body weight of each hamster was weighed, followed by performing rotarod test, slope endurance test, and counting of falling down frequency. The types of compounds applied to each group and the results are in Table 25.

[3] = test system: hamsters with cerebellar ataxia; test: Falling down frequency of hamsters with cerebellar ataxia; details: cerebellar ataxia hamsters, 10-weeks of age; 25 μg/kg body weight i.p. once a day
Excerpt: as §1
Hamsters, 10-weeks of age, were respectively housed in a breeding cage. Their falling down frequencies within one minute were counted under a macroscopic observation and the data from five heads in each group were averaged. For reference, the hamsters with cerebellar A used in this experiment are known to increase their falling down frequencies after nine weeks of age.
as §2

[4] = test system: hamsters with cerebellar ataxia; test: Histological evaluation of cerebellum of hamsters with cerebellar ataxia; details: 10-weeks of age, 25 μg/kg body weight
Excerpt: as §1
Hamsters, 10-weeks of age, after completion of test on coordinated movement such as a confirmation of falling down frequency were intraperitoneally received 50 mg/kg pentobarbital, bled from their postcavas to let them die, and extracted their cerebra and cerebella, followed by fixing them with a 10% by volume of formalin solution. The resulting cerebra and cerebella were photographed with a digital camera apart from a prescribed high position and measured diameters in sagittal and horizontal directions for each photograph. The volumes of cerebra and cerebella were respectively determined by calculating with the formula, (length of sagittal direction)^2×(length of horizontal direction)×0.5; and the data from five heads in each group were averaged. The hamsters with cerebella A used in this experiment are known to reduce cell density of Purkinje's cells and granular cells. Cerebellar slices, which had been cut out in sagittal direction, were stained with hematoxylin-eosin stain, and microscopically observed to count the total number of Purkinje's cells within a Purkinje's cell layer ([…] I to X) and the number of granular cells per unit area, and to confirm subjects in which demyelination was observed within their cerebellar white matters. The results are in Table 5 in parallel.

[5] = test system: hamsters with cerebellar ataxia; test: Concentration of glutamic acid in cerebrospinal fluid (CSF); details: 10-weeks of age, 25 μg/kg body weight
Excerpt: as §1
The content of glutamic acid, which is used for synthesizing gamma-amino butyric acid (GABA) as a main excitatory neurotransmitter and inhibitory neurotransmitter that regulate higher-order functions such as memory/learning in mammalian central nervous system, was assayed. In harvesting the brains from the above hamsters, they were blooded from their postcavas, followed by collecting CSF for use in the later described assay for glutamic acid concentration. […]

[6] = Body weight of hamsters with cerebellar ataxia during administration; details: compared between groups administered with PBS, NK-4 and IGF-1

With “IGF-1: insulin-like growth factor, human, commercialized by Assaypro LLC” the “Delayed days until the onset of cerebellar ataxia in hamster” value (from here on “Delayed days until the onset”) ([1]; 5-Weeks) was 1 days, the “Delayed days until the onset” value ([1]; 6-Weeks) was 8 days and the “Delayed days until the onset” value ([1]; 7-Weeks) was 1 days. For the same substance, the “Delayed days until the onset” value ([1]; 8-Weeks) was 1 days, the “Delayed days until the onset” value ([1]; 9-Weeks) was 0 days and the “Delayed days until the onset” value ([1]; 10-Weeks) was 0 days. For the same substance, the “time (sec) endured until falling from rotarod apparatus” value (from here on “time (sec) endured until falling”) ([1]; 4-Weeks) was 126 ± 11 s, the “time (sec) endured until falling” value ([1]; 5-Weeks) was 63 ± 13 s and the “time (sec) endured until falling” value ([1]; 6-Weeks) was 43 ± 11 s. For the same substance, the “time (sec) endured until falling” value ([1]; 7-Weeks) was 21 ± 5 s, the “time (sec) endured until falling” value ([1]; 8-Weeks) was 9 ± 2 s and the “time (sec) endured until falling” value ([1]; 9-Weeks) was 6 ± 1 s. The “time (sec) endured until falling” value ([1]; 10-Weeks) was 6 ± 1 s, the “endurable-slant-slope-angle (degree)” value ([2]; 4-Weeks) was 44.4 ± 0.2 degree and the “endurable-slant-slope-angle (degree)” value ([2]; 5-Weeks) was 41.8 ± 0.6 degree. The “endurable-slant-slope-angle (degree)” value ([2]; 6-Weeks) was 40.2 ± 0.7 degree, the “endurable-slant-slope-angle (degree)” value ([2]; 7-Weeks) was 41.6 ± 0.8 degree and the “endurable-slant-slope-angle (degree)” value ([2]; 8-Weeks) was 35.6 ± 0.2 degree. For the same substance, the “endurable-slant-slope-angle (degree)” value ([2]; 9-Weeks) was 35.2 ± 0.6 degree, the “endurable-slant-slope-angle (degree)” value ([2]; 10-Weeks) was 33.0 ± 0.9 degree and the “Falling down frequency (frequency/min)” value [3] was 11.4 ± 0.4 frequency/min. The “Cerebellar volume (mm^3)” value ([4]; cerebellar ataxia hamsters) was 77.6 ± 6.1* mm^3, the “Number of Purkinje cells (cells)” value ([4]; cerebellar ataxia hamsters) was 71 ± 16 cells and the “Number of granular cells (cells/20000 μm^2)” value ([4]; cerebellar ataxia hamsters) was 371 ± 11 cells/20000 μm^2. The “Number of subject (head) with apparent demyelination in cerebellar white matter” value ([4]; five heads per group) was 3 head, the “Concentration of glutamic acid in cerebrospinal fluid” value [5] was 7.9 ± 2.0 µM and the “body weight of hamsters with cerebellar A, weighed once every week up to 10-weeks of age” value [6] was “no significant difference”.
